The source of these data is ChEMBL document CHEMBL4339239, “A Cytotoxic Indole Characterized by Incorporation of a Unique Carbon-Nitrogen Skeleton and Two Pentacyclic Corynanthean Alkaloids Incorporating a Substituted Tetrahydrofuranone Ring from Kopsia arborea” (J Nat Prod, 2019).

This assay has as its system HT-29. Description: Cytotoxicity in human HT-29 cells assessed as inhibition of cell growth incubated for 72 hrs by MTT assay. It is filed as functional, cell-based. The note with it: HT-29, 72 h. Background: Tetrazolium dyes change colour on reduction, which living cells bring about.

Structures are written as SMILES. pIC50: −log10 of the molar value. Some results are limits rather than exact numbers.

`C=C1c2[nH]c3ccccc3c2C[C@H]2[N@]3CC[C@]12/C(=C\C)C3`: the pIC50 (usually −log10 of the IC50, conventionally taken in molar units) was 5.21.

With `C[C@H](O)[C@@]12CN3CCc4c([nH]c5ccccc45)[C@@H]3C[C@@H]1C(=O)CO2`, the pIC50 is less than 4.52.
